This passage reports IC50 results from patent US11712438B2, “Phenyl derivatives as PGE2 receptor modulators” (IDORSIA PHARMACEUTICALS LTD, priority 2017, dated 2023).

Some targets named below: PTRGER4 (EP4) (Homo sapiens, UniProt P35408); EP4 (Homo sapiens, UniProt P35408); EP2 (Homo sapiens, UniProt P43116).
Experiment in all cases: cell-based

Chain of EP2 (P43116 whole entry): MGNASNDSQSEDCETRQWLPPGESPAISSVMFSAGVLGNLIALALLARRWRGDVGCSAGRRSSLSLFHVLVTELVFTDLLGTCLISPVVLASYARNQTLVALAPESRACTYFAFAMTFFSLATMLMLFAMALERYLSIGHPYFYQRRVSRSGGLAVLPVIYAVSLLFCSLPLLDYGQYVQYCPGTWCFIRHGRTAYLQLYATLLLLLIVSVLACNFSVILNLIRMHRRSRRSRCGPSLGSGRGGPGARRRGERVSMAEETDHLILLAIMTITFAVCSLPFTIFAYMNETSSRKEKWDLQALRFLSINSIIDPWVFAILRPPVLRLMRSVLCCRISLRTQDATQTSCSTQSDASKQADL
Chain of EP4 (P35408 whole entry): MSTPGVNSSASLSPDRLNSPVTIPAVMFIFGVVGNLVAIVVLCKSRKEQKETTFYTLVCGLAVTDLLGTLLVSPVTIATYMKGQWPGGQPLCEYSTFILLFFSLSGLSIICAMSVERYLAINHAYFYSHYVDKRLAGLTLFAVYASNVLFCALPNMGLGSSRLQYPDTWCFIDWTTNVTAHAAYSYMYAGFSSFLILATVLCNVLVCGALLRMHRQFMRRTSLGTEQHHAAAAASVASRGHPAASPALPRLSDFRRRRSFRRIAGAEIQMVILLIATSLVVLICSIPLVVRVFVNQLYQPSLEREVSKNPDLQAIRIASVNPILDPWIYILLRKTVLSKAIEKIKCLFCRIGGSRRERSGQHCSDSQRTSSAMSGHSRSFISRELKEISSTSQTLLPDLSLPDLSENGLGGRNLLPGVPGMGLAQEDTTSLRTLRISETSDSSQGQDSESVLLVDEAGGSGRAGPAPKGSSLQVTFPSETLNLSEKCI
Chain of PTRGER4 (EP4) (P35408 whole entry): as above
From the text for PTRGER4 (EP4): The assay is using the PathHunter™ HEK 293 PTGER2 and PTGER4 b-arrestin cell lines from DiscoverX. The system is based on the Enzyme Fragment Complementation Technology. Two complementing fragments of the b-galactosidase enzyme are expressed within stably transfected cells. The larger portion of b-gal, termed EA for Enzyme Acceptor, is fused to the C-terminus of b-arrestin 2. The smaller fragment, termed ProLink™ tag, is fused to PTGER2 (EP2) or PTRGER4 (EP4) at the C-terminus. Upon activation, b-arrestin is recruited which forces the interaction of ProLink and EA, allowing complementation of the two fragments of b-gal and the formation of a functional enzyme which is capable of hydrolysing the substrate and generating a chemiluminescent signal.
The HEK 293 PTGER4 b-arrestin cells (DiscoverX 93-030-4C1) are detached from culture dishes with a cell dissociation buffer (Invitrogen, 13151-014), and collected in growing medium (GM: DMEM+Glutamax-I (Invitrogen 32430)/10% FCS, 1% Penicilin/streptomycin). 5000 cells per well of a 384 well plate (white with white bottom Greiner 781080) are seeded in 20 ul per well of GM. Plate is incubated at 37° C., 5% CO2 for 24 hours.
Stock solutions of test compounds are made at a concentration of 10 mM in DMSO, and serially diluted in DMSO to concentrations required for inhibition dose response curves (tested concentration range 10 μM-2 nM or 1 μM-0.2 nM).
PGE2 (Cayman 14010, stock solution: 100 uM in DMSO) is used as agonist at 20 nM final concentration, corresponding to EC80.
Five microliters of diluted compounds are transferred into the assay plate. Plate is pre-incubated 15 minutes at 37° C. Then five microliters of PGE2 (final conc. 20 nM) are transferred into the assay plate. Plate is incubated 120 minutes at 37° C.
Twelve μl of reagent are transferred to the assay plate and incubate for 1 hour at room temperature in the dark. Luminescence counts are read on a BMG Fluostar Optima reader according to manufacturers instructions.
For each compound concentration calculate of the percentage of activity compared to DMSO control value as average±STDEV. (each concentration is measured in duplicate)
When compounds were measured multiple times, mean values are given.

For `CCOc1cc(-c2cc(NCCc3ccc(OC)c(Cl)c3)ncn2)sc1-c1noc(=O)[nH]1` [Example 122, 3-(5-{6-[2-(3-Chloro-4-methoxy-phenyl)-ethylamino]-pyrimidin-4-yl}-3-ethoxy-thiophen-2yl)-[1,2,4]oxadiazol-5(4H)-one], the 50% inhibitory concentration (IC50) against PTRGER4 (EP4) stood at 0.008 µM; on EP4, 0.019 µM; against EP2, 0.906 µM.

In the case of `O=C(O)c1sc(-c2cc(NCCc3ccc(C(F)(F)F)cc3)ncn2)cc1F` [Example 22, 3-Fluoro-5-{6-[2-(4-trifluoromethyl-phenyl)-ethylamino]-pyrimidin-4-yl}-thiophene-2-carboxylic acid], the IC50 on PTRGER4 (EP4) was 0.187 µM; against EP4 it was 0.068 µM; at EP2 it was 0.759 µM.

Consider `CCOc1cc(-c2cc(NCCc3ccc(Br)cc3)ncn2)sc1-c1noc(=S)[nH]1` [Example 132, 3-(5-{6-[2-(4-Bromo-phenyl)-ethylamino]-pyrimidin-4-yl}-3-ethoxy-thiophen-2-yl)-[1,2,4]oxadiazole-5(4H)-thione], for which the IC50 was determined as 0.006 µM against PTRGER4 (EP4), 0.06 µM against EP4 and 0.594 µM on EP2.

Turning to `CCOc1cc(-c2cc(NCCc3ccc(Br)cc3)ncn2)sc1Cc1noc(=O)[nH]1` [Example 137, 3-(5-{6-[2-(4-Bromo-phenyl)-ethylamino]-pyrimidin-4-yl}-3-ethoxy-thiophen-2-ylmethyl)-[1,2,4]oxadiazol-5(4H)-one], the IC50 was found to be 0.411 µM at PTRGER4 (EP4), 0.963 µM on EP4 and 0.371 µM on EP2.

Regarding `CCOc1cc(-c2cc(NCCc3ccc(Br)cc3)ncn2)sc1C(=N)NO` [Example 129, 5-{6-[2-(4-Bromo-phenyl)-ethylamino]-pyrimidin-4-yl}-3-ethoxy-N-hydroxy-thiophene-2-carboxamidine], the half-inhibitory concentration (IC50) was 0.045 µM against PTRGER4 (EP4), 0.247 µM at EP4 and 0.372 µM at EP2.

For the compound `NC(=O)Cc1ccc(-c2cc(NCCc3ccc(Br)cc3)ncn2)s1` [Example 158, 2-(5-{6-[2-(4-Bromo-phenyl)-ethylamino]-pyrimidin-4-yl}-thiophen-2-yl)-acetamide], the figures for the IC50 against PTRGER4 (EP4), against EP4 and on EP2 were 2.27 µM, 0.913 µM and 0.643 µM, respectively.

Turning to `CCOc1cc(-c2cc(NCCc3ccc(Br)cc3)ncn2)sc1C(N)=O` [Example 128, 5-{6-[2-(4-Bromo-phenyl)-ethylamino]-pyrimidin-4-yl}-3-ethoxy-thiophene-2-carboxylic acid amide], the IC50 turned out to be 0.034 µM against PTRGER4 (EP4), 0.235 µM against EP4 and 0.629 µM on EP2.

For the compound `NC(=O)c1sc(-c2cc(NCCc3c(F)cc(Br)cc3F)ncn2)cc1C(F)(F)F` [Example 134, 5-{6-[2-(4-Bromo-2,6-difluoro-phenyl)-ethylamino]-pyrimidin-4-yl}-3-trifluoromethyl-thiophene-2-carboxylic acid amide], the values for the half-inhibitory concentration (IC50) against PTRGER4 (EP4), against EP4 and at EP2 were 0.098 µM, 0.718 µM and 0.284 µM, respectively.

As to `CCOc1cc(-c2cc(NCCc3ccc(Br)cc3CC)ncn2)sc1-c1noc(=O)[nH]1` [Example 104, 3-(5-{6-[2-(4-Bromo-2-ethyl-phenyl)-ethylamino]-pyrimidin-4-yl}-3-ethoxy-thiophen-2-yl)-[1,2,4]oxadiazol-5(4H)-one], the results for the IC50 at PTRGER4 (EP4), against EP4 and against EP2 were 0.101 µM, 0.399 µM and 0.956 µM, respectively.

`CCOc1cc(-c2cc(NCCc3ccc(N(C)C)cc3F)ncn2)sc1-c1noc(=O)[nH]1` [Example 161, 3-(5-{6-[2-(4-Dimethylamino-2-fluoro-phenyl)-ethylamino]-pyrimidin-4-yl}-3-ethoxy-thiophen-2-yl)[1,2,4]oxadiazol-5(4H)-one]: the IC50 against PTRGER4 (EP4) stood at 0.01 µM; on EP4, 0.04 µM; against EP2, 0.713 µM.

Consider `CCOc1cc(-c2cc(NCCc3ccc(Br)cc3)ncn2)sc1CCc1noc(=O)[nH]1` [Example 144, 3-[2-(5-{6-[2-(4-Bromo-phenyl)-ethylamino]-pyrimidin-4-yl}-3-ethoxy-thiophen-2-yl)-ethyl]-[1,2,4]oxadiazol-5(4H)-one], for which the IC50 against PTRGER4 (EP4) was 0.126 µM; against EP4, 0.433 µM; against EP2, 1 µM.

With `CCOc1cc(-c2cc(NCCc3ccc(Cl)cc3NC)ncn2)sc1-c1noc(=O)[nH]1` [Example 91, 3-(5-{6-[2-(4-Chloro-2-methylamino-phenyl)-ethylamino]-pyrimidin-4-yl}-3-ethoxy-thiophen-2yl)-[1,2,4]oxadiazol-5(4H)-one], the values for the IC50 at PTRGER4 (EP4), against EP4 and against EP2 were 0.042 µM, 0.335 µM and 2.84 µM, respectively.

For the compound `Brc1ccc(CCNc2cc(-c3ccc(Cc4nnn[nH]4)s3)ncn2)cc1` [Example 288, [2-(4-Bromo-phenyl)-ethyl]-{6-[5-(1H-tetrazol-5-ylmethyl)-thiophen-2-yl]-pyrimidin-4-yl}-amine], the values for the IC50 against PTRGER4 (EP4), at EP4 and at EP2 were 1.19 µM, 0.775 µM and 0.739 µM, respectively.

As to `CCOc1cc(-c2cc(NCCc3ccc(Br)cc3)ncn2)sc1-c1noc(NCCO)n1` [Example 141, 2-[3-(5-{6-[2-(4-Bromo-phenyl)-ethylamino]-pyrimidin-4-yl}-3-ethoxy-thiophen-2-yl)-[1,2,4]oxadiazol-5-ylamino]-ethanol], the concentration for half-maximal inhibition (IC50) on PTRGER4 (EP4) worked out at 0.008 µM; at EP4, 0.168 µM; against EP2 it was 0.381 µM.

In the case of `CCOc1cc(-c2cc(NCCc3ccc(Br)cc3OC(F)(F)F)ncn2)sc1-c1noc(=O)[nH]1` [Example 84, 3-(5-{6-[2-(4-Bromo-2-trifluoromethoxy-phenyl)-ethylamino]-pyrimidin-4-yl}-3-ethoxy-thiophen-2yl)-[1,2,4]oxadiazol-5(4H)-one], the half-inhibitory concentration (IC50) against PTRGER4 (EP4) was determined as 0.116 µM; on EP4 it was 0.166 µM; against EP2, 0.358 µM.

With `CCOc1cc(-c2cc(NCCc3cccc(C(F)(F)F)c3)ncn2)sc1C(=O)O` [Example 61, 3-Ethoxy-5-{6-[2-(3-trifluoromethyl-phenyl)-ethylamino]-pyrimidin-4-yl}-thiophene-2-carboxylic acid], the concentration for half-maximal inhibition (IC50) at PTRGER4 (EP4) came out at 0.363 µM; against EP4 it was 0.161 µM; at EP2, 0.715 µM.

For the compound `CCOc1cc(-c2cc(NCCc3cc(Cl)ccc3C#N)ncn2)sc1-c1noc(=O)[nH]1` [Example 160, 4-Chloro-2-(2-{6-[4-ethoxy-5-(5-oxo-4,5-dihydro-[1,2,4]oxadiazol-3-yl)-thiophen-2-yl]-pyrimidin-4-ylamino}-ethyl)-benzonitrile], the IC50 against PTRGER4 (EP4) is 0.134 µM; against EP4 it was 0.256 µM; on EP2 it was 0.318 µM.

`CCOc1cc(-c2cc(NCCc3ccc(Br)cc3)ncn2)sc1-c1noc(N)n1` [Example 139, {6-[5-(5-Amino-[1,2,4]oxadiazol-3-yl)-4-ethoxy-thiophen-2-yl]-pyrimidin-4-yl}-[2-(4-bromo-phenyl)-ethyl]-amine]: the values for the IC50 at PTRGER4 (EP4), on EP4 and against EP2 were 0.006 µM, 0.149 µM and 0.29 µM, respectively.

Take `CCOc1cc(-c2cc(NCCc3ccc(Br)cc3)ncn2)sc1CC(N)=O` [Example 287, 2-(5-{6-[2-(4-Bromo-phenyl)-ethylamino]-pyrimidin-4-yl}-3-ethoxy-thiophen-2-yl)-acetamide]: the values for the half-inhibitory concentration (IC50) at PTRGER4 (EP4), at EP4 and against EP2 were 0.315 µM, 1.21 µM and 0.868 µM, respectively.

Take `CCOc1cc(-c2cc(NCCc3ccc(O)cc3)ncn2)sc1C(=O)O` [Example 69, 3-Ethoxy-5-{6-[2-(4-hydroxy-phenyl)-ethylamino]-pyrimidin-4-yl}-thiophene-2-carboxylic acid]: the 50% inhibitory concentration (IC50) at PTRGER4 (EP4) was determined as 0.915 µM; at EP4, 0.17 µM; on EP2, 0.382 µM.

With `CCOc1cc(-c2cc(NCCc3cccc(Br)c3)ncn2)sc1C(=O)O` [Example 79, 5-{6-[2-(3-Bromo-phenyl)-ethylamino]-pyrimidin-4-yl}-3-ethoxy-thiophene-2-carboxylic acid], the 50% inhibitory concentration (IC50) stood at 0.203 µM against PTRGER4 (EP4), 0.106 µM at EP4 and 0.408 µM at EP2.

As to `CCOc1cc(-c2cc(NCCc3ccc(OC)cc3)ncn2)sc1C(=O)O` [Example 60, 3-Ethoxy-5-{6-[2-(4-methoxy-phenyl)-ethylamino]-pyrimidin-4-yl}-thiophene-2-carboxylic acid], the figures for the IC50 against PTRGER4 (EP4), against EP4 and against EP2 were 0.139 µM, 0.081 µM and 0.376 µM, respectively.

As for `CCOc1cc(-c2cc(NCCc3ccc(Br)cc3)ncn2)sc1-c1noc(OC)n1` [Example 140, [2-(4-Bromo-phenyl)-ethyl]-{6-[4-ethoxy-5-(5-methoxy-[1,2,4]oxadiazol-3-yl)-thiophen-2-yl]-pyrimidin-4-yl}-amine], the IC50 at PTRGER4 (EP4) amounted to 0.012 µM; at EP4, 0.218 µM; at EP2 it was 0.345 µM.

Turning to `COc1cccc(CCNc2cc(-c3cc(C(F)(F)F)c(C(=O)O)s3)ncn2)c1` [Example 63, 5-{6-[2-(3-Methoxy-phenyl)-ethylamino]-pyrimidin-4-yl}-3-trifluoromethyl-thiophene-2-carboxylic acid], the IC50 was found to be 0.233 µM at PTRGER4 (EP4), 0.105 µM at EP4 and 0.644 µM against EP2.

Regarding `COc1cc(-c2cc(NCCc3ccc(Br)cc3)ncn2)ccc1O` [Example 10, 4-{6-[2-(4-Bromo-phenyl)-ethylamino]-pyrimidin-4-yl}-2-methoxy-phenol], the half-inhibitory concentration (IC50) is 0.798 µM against EP4 and 0.931 µM against EP2.

Turning to `CCOc1cc(-c2cc(NCCc3ccc(F)cc3)ncn2)sc1C(=O)O` [Example 80, 3-Ethoxy-5-{6-[2-(4-fluoro-phenyl)-ethylamino]-pyrimidin-4-yl}-thiophene-2-carboxylic acid], the IC50 on EP4 is 0.366 µM; against EP2, 0.255 µM.

Consider `CCOc1cc(-c2cc(NCCc3cc(C)c(C)cc3OC)ncn2)sc1C(=O)O` [Example 5, 3-Ethoxy-5-{6-[2-(2-methoxy-4,5-dimethyl-phenyl)-ethylamino]-pyrimidin-4-yl}-thiophene-2-carboxylic acid], for which the half-maximal inhibitory concentration (IC50) is 0.006 µM against EP4 and 0.045 µM against EP2.
